Results on five compounds are retold here after patent US20140200188A1, “2'-FLUORO SUBSTITUTED CARBA-NUCLEOSIDE ANALOGS FOR ANTIVIRAL TREATMENT” (priority 2010, published 2014).

Experiment [1] relates to Influenza A virus (A/Hong Kong/8/68). In words: Influenza A antiviral assay (H3N2), virus-induced cytopathic effect in MDCK cells. In kind it is cell-based. As to conditions: 120 h, Influenza A/Hong Kong/8/68 (H3N2), MOI 0.03, five day incubation, Cell-titer Glo, read-out: EC50 against the influenza virus. On the procedure:
MDCK cells were seeded in 96-well plates at a density of 1e5 cells per well in 100 μL of MEM culture medium with 10% FBS. Compounds were 3-fold serially diluted in complete MEM culture medium, with 100 μM as the highest concentration. Each concentration was tested in duplicate. Prior to infection, cells were washed once with 200 μL serum-free MEM. Influenza A virus (A/Hong Kong/8/68, Advanced Biotechnology Inc, Columbia, Md.) was added to cells at MOI 0.03 in 100 ul serum-free MEM containing 27 U/mL trypsin (Worthington, Lakewood, N.J.). After 10 minute incubation at room temperature, 100 μL compound dilutions were added to infected cells for a final volume of 200 μL. After five day incubation at 37° C., virus-induced cytopathic effect was determined by adding Cell-titer Glo viability reagents (Promega, Madison, Wis.) and measuring luminescence on a Victor Luminescence plate reader (Perkin-Elmer, Waltham, Mass.). The cytotoxicity of the compounds in MDCK cells was determined in replicate plates in the same way as in antiviral activity assays, except no virus was added to the cell culture. EC50 and CC50 values were calculated by non-linear regression of multiple data sets using XLFit software (IBDS, Guildford, UK).

Experiment [2] has as its target Influenza RNA polymerase (Influenza A/PR8/34 (H1N1) virus lysate) (Influenza A virus, UniProt P03431). In words: Influenza RNA polymerase inhibition (IC50) assay. The format is biochemical.

The structures appear in SMILES notation.

Turning to `Nc1ncnn2c([C@@H]3O[C@H](CO)[C@@H](O)[C@H]3F)ccc12` [Compound 1, (2R,3R,4R,5S)-5-(4-aminopyrrolo[1,2-f][1,2,4]triazin-7-yl)-4-fluoro-2-(hydroxymethyl)-tetrahydrofuran-3-ol], the EC50 in experiment [1] lay in the range of 10500 to 12700 nM. As to `C[C@@]1(c2ccc3c(N)ncnn23)O[C@H](COP(=O)(O)OP(=O)(O)OP(=O)(O)O)[C@@H](O)[C@H]1F` [Compound 9, ((2R,3R,4R,5S)-5-(4-aminopyrrolo[1,2-f][1,2,4]triazin-7-yl)-4-fluoro-3-hydroxy-5-methyltetrahydrofuran-2-yl)methyl tetrahydrogen triphosphate], the IC50 in experiment [2] was 2100 to 2970 nM. In experiment [2], `Nc1nc(F)nn2c([C@@H]3O[C@H](COP(=O)(O)OP(=O)(O)OP(=O)(O)O)[C@@H](O)[C@H]3F)ccc12` [Compound 21, ((2R,3R,4R,5S)-5-(4-amino-2-fluoropyrrolo[1,2-f][1,2,4]triazin-7-yl)-4-fluoro-3-hydroxytetrahydrofuran-2-yl)methyl tetrahydrogen triphosphate] had an IC50 of 970 to 1870 nM.

Take `N#C[C@@]1(c2ccc3c(N)ncnn23)O[C@H](COP(=O)(O)OP(=O)(O)OP(=O)(O)O)[C@@H](O)[C@H]1F` [Compound 10, ((2R,3R,4R,5R)-5-(4-aminopyrrolo[1,2-f][1,2,4]triazin-7-yl-5-cyano-4-fluoro-3-hydroxytetrahydrofuran-2-yl)methyltetrahydrogen triphosphate]: the IC50 in experiment [2] was in the range of 48600 to 116000 nM. Same read-out and setting: the figure for `Nc1ncnn2c([C@@H]3O[C@H](COP(=O)(O)OP(=O)(O)OP(=O)(O)O)[C@@H](O)[C@H]3F)ccc12` [Compound 11, ((2R,3R,4R,5S)-5-(4-aminopyrrolo[1,2-f][1,2,4]triazin-7-yl-4-fluoro-3-hydroxy-tetrahydrofuran-2-yl)methyltetrahydrogen triphosphate] is 950 to 1590 nM.

As usually defined, the EC50 is the midpoint of the concentration-response curve. By IC50 is commonly meant the concentration that gives 50% inhibition. High values mean weaker potency in that assay, low ones greater potency in that assay.
